Among the test systems are 786-0; SNB-75; PC-3; RXF 393; NCI-H522; LOX IMVI; SK-OV-3; Malme-3M; OVCAR-5; HOP-92; MDA-MB-435; HCT-116; OVCAR-8; HL-60; EKVX; RPMI-8226; A549; SNB-19; HCC 2998; SW-620.
Common to all, as to assay: DTP human tumour cell line panel, 48 h

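Results reflect a 48-hour exposure of cells in 96-well plates to compound at five concentrations. Abbreviation: GI50, concentration required for 50% inhibition of growth.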 Active and inactive are the calls of the source. Cut-off read from the data, not from the text of the source: active = GI50 up to about 1.1 µM and inactive = higher. Bridge positions count the residues as written; N and C are the ends. Square brackets hold non-standard residues; d marks the D form. Peptide text beside a SMILES is read from it. I, II: the chains in the order shown. * marks the point of attachment. Quinoxaline2carbonyl = O=C(c1cnc2ccccc2n1)*; NMeV = CN[CH](C(=O)O)C(C)C; NMeC = CN[CH](CS)C(=O)O

This note sets out measurements from ChEMBL document CHEMBL1201862, “PubChem BioAssay data set” (2004).

Take `CN(NC(=O)c1ccc(Cl)cc1)C1=NCCCCN1`: the GI50 with 786-0, with SNB-75, with PC-3, in the test with RXF 393, with NCI-H522 and in the test with LOX IMVI was > 100 µM (inactive) each time. The GI50 with SK-OV-3, in the test with Malme-3M, with OVCAR-5, with HOP-92, in the test with MDA-MB-435 and in the test on HCT-116 was > 100 µM (inactive) in each case. Also, the GI50 with OVCAR-8, in the test on HL-60, with EKVX, with RPMI-8226, in the test with A549 and in the test with SNB-19 was > 100 µM (inactive) in each case. The GI50 in the test on HCC 2998 and in the test on SW-620 was > 100 µM (inactive) each time.
As for `COCCOCCOC1=C(Cl)C(=O)c2c(O)ccc(O)c2C1=O`, the GI50 with 786-0 is 1.12 µM (active); with SNB-75, 15.6 µM (inactive); in the test with PC-3, 5.42 µM (inactive); with RXF 393 it was 1.44 µM (inactive); with NCI-H522, 1.01 µM (active); with LOX IMVI, 1.95 µM (inactive). In addition, the GI50 in the test on SK-OV-3 was 19 µM (inactive); with Malme-3M, 1.65 µM (inactive); in the test with OVCAR-5, 9.04 µM (inactive); with HOP-92, 1.98 µM (inactive); with MDA-MB-435, 1.74 µM (inactive); with HCT-116 it was 0.923 µM (active). Besides, the GI50 in the test with OVCAR-8 is 2.21 µM (inactive); with HL-60, 0.207 µM (active); in the test on EKVX it was 8.57 µM (inactive); with RPMI-8226, 0.718 µM (active); in the test with A549, 8.02 µM (inactive); with SNB-19 it was 13.5 µM (inactive). Besides, the GI50 in the test with HCC 2998 is 18.6 µM (inactive); in the test with SW-620 it was 0.287 µM (active).
`CC(C)(C)OC(=O)N1CCCC1C(=O)NC(c1ccccc1)c1ccccc1` (stereo not given): the GI50 with 786-0, in the test with SNB-75, in the test on PC-3, in the test on RXF 393, in the test on NCI-H522 and in the test on LOX IMVI was > 100 µM (inactive) throughout. For the same compound, the GI50 with SK-OV-3, in the test on Malme-3M, with OVCAR-5, in the test on HOP-92, in the test on MDA-MB-435 and with HCT-116 was > 100 µM (inactive) throughout. Besides, the GI50 in the test on OVCAR-8, in the test on HL-60, with EKVX, in the test on RPMI-8226, in the test on A549 and in the test with SNB-19 was > 100 µM (inactive) each time. For the same compound, the GI50 with HCC 2998 and in the test with SW-620 was > 100 µM (inactive) in each case.
In the case of `COC1C(O)C(C)OC(O[C@@H]2C[C@H]3CC[C@@H]4[C@H](CC[C@]5(C)[C@@H](C6=CC(=O)OC6)CC[C@]45O)[C@@]3(C)[C@H](O)C2)C1O` (stereo not given in full), the GI50 was 0.149 µM (active) in the test on 786-0; 0.126 µM (active) in the test with SNB-75; 0.0755 µM (active) in the test on PC-3; < 0.0161 µM (active) in the test with RXF 393; < 0.01 µM (active) in the test on NCI-H522; < 0.0362 µM (active) with LOX IMVI. Besides, the GI50 in the test with SK-OV-3 was < 0.0193 µM (active); in the test on Malme-3M, < 0.0396 µM (active); in the test on OVCAR-5, 0.114 µM (active); in the test with HOP-92 it was 0.106 µM (active); with MDA-MB-435 it was 0.0883 µM (active); in the test on HCT-116 it was < 0.0225 µM (active). The GI50 in the test on OVCAR-8 is 0.0472 µM (active); in the test with HL-60 it was < 0.04 µM (active); in the test with EKVX, < 0.0474 µM (active); in the test on RPMI-8226, 0.0512 µM (active); in the test with A549 it was < 0.0221 µM (active); in the test with SNB-19, 0.264 µM (active). In addition, the results for the concentration for 50% growth inhibition (GI50) in the test on HCC 2998 and in the test with SW-620 were 0.719 µM (active) and 0.0782 µM (active), respectively.
In the case of `CC1NC(=O)C(NC(=O)c2cnc3ccccc3n2)COC(=O)C(C(C)C)N(C)C(=O)C2CSSCC(C(=O)N(C)C(C(C)C)C(=O)OCC(NC(=O)c3cnc4ccccc4n3)C(=O)NC(C)C(=O)N2C)N(C)C1=O` (stereo not given) (I: Quinoxaline2carbonyl-SA[NMeC][NMeV] / II: Quinoxaline2carbonyl-SA[NMeC][NMeV]; ester I:1-II:C, I:C-II:1; disulfide I:3-II:3; configuration not given here), the GI50 in the test on 786-0, in the test on SNB-75, with PC-3, in the test with RXF 393, in the test on NCI-H522 and in the test with LOX IMVI was < 0.01 µM (active) in each case. Besides, the GI50 in the test with SK-OV-3, in the test with Malme-3M, in the test with OVCAR-5, in the test with HOP-92, in the test on MDA-MB-435 and in the test on HCT-116 was < 0.01 µM (active) each time. Besides, the GI50 with OVCAR-8, in the test with HL-60, with EKVX, in the test with RPMI-8226, in the test on A549 and in the test on SNB-19 was < 0.01 µM (active) in each case. The GI50 in the test on HCC 2998 and in the test with SW-620 was < 0.01 µM (active) throughout.
`CCN(CC)Cc1sc2nc3ccccc3n2c1-c1ccc(OC)cc1`: the GI50 in the test on 786-0 was 35.2 µM (inactive); in the test on SNB-75, 33.8 µM (inactive); with PC-3 it was 17.4 µM (inactive); with RXF 393, 26.2 µM (inactive); in the test on NCI-H522, 4.11 µM (inactive); in the test on LOX IMVI, 28.3 µM (inactive). Further, the GI50 is 27 µM (inactive) in the test with SK-OV-3; 17.2 µM (inactive) with Malme-3M; 76 µM (inactive) in the test on OVCAR-5; 27.8 µM (inactive) in the test on HOP-92; 3.05 µM (inactive) in the test with MDA-MB-435; 26.6 µM (inactive) with HCT-116. Besides, the GI50 is 36.9 µM (inactive) with OVCAR-8; 20.9 µM (inactive) in the test on HL-60; 27.6 µM (inactive) in the test with EKVX; 10.5 µM (inactive) in the test on RPMI-8226; 31.8 µM (inactive) in the test with A549; 27.1 µM (inactive) with SNB-19. Also, the GI50 in the test with HCC 2998 was 45.6 µM (inactive); with SW-620, 29 µM (inactive).
Consider `Cc1ccc2[nH]c3c(C)c4cc[n+](C)cc4c(C)c3c2c1`, for which the GI50 is 0.328 µM (active) in the test with 786-0; 0.251 µM (active) in the test on SNB-75; 0.63 µM (active) in the test on PC-3; 1.42 µM (inactive) in the test with RXF 393; 1.03 µM (active) with NCI-H522; 5 µM (inactive) in the test with LOX IMVI. For the same compound, the GI50 was 2.51 µM (inactive) with SK-OV-3; 1.38 µM (inactive) in the test with Malme-3M; 5 µM (inactive) in the test with OVCAR-5; 4.32 µM (inactive) in the test with HOP-92; 2.45 µM (inactive) in the test with MDA-MB-435; 1.36 µM (inactive) with HCT-116. Also, the GI50 in the test with OVCAR-8 is 0.612 µM (active); in the test on HL-60, 5.12 µM (inactive); in the test on EKVX, 1.27 µM (inactive); in the test with RPMI-8226, 16.1 µM (inactive); in the test on A549, 0.325 µM (active); with SNB-19, 0.499 µM (active). Further, the figures for the GI50 in the test with HCC 2998 and in the test with SW-620 were 2.06 µM (inactive) and 0.374 µM (active), respectively.

A word on the GI50: it is the concentration that inhibits growth by half.
